Data published in patent US20130210057A1, “USE OF LABEL-FREE BIOSENSORS TO UNDERSTAND AND IDENTIFY TREATMENT FOR CANCER” (CORNING INCORPORATED, priority 2012, published 2013).
Entries after “also recorded” stand apart in the source; their conditions may differ. Where two headings read alike, the source gives them in different places. Ends that are not written are not given here.

Tests used:
HCT116 parental cells [1] = experiment: cAMP-Glo assay; format: cell-based, human; settings: 15 minutes incubation
Protocol: (§1) Cells were cultured in the McCoy's 5a complete growth medium overnight. The next day cAMP-Glo assay was performed according to manufacturer's instruction (Promega, Cat# V1502). Briefly, cell culture medium was removed by flipping the plate. […] Luminescence was measured using Tecan Salim II plate reader.
(§2) To screen endogenous receptors and their coupled signaling pathways, we first assembled a GPCR agonist focused library (Table 1). The library consists of 120 GPCR agonists covering over 150 known GPCRs, based on their known pharmacology including polypharmacology. For small molecule chemical agonists, the dose used was 10 micromolar. For peptide agonists, the dose used was 1 micromolar. For lipid agonists, the dose used was also 1 micromolar. For both peptides and lipids, these agonists were suspended in a solution containing 0.05% bovine […] to increase their stability.
(§3) cAMP assays were employed to investigate endogenous Gs-coupled receptors. FIG. 2 is a graph illustrating cAMP accumulation induced by GPCR agonists. The percentage of cAMP level after normalized to the forskolin-induced cAMP increase was plotted as a function of GPCR agonists. PCT116 parental (squares) was compared with HCT116-PTEN Null (diamonds) cell line.

HCT116 PTEN null cells [2] = experiment: cAMP-Glo assay; format: cell-based, human; settings: 15 minutes incubation
Protocol: as §1, §2, §3

HCT116 parental cells [3] = experiment: Calcium flux assay (FLUO-4, FDSS/FLIPR); format: cell-based, human; settings: small molecule agonists 10 micromolar, peptide and lipid agonists 1 micromolar
Excerpt: as §2

HCT116 PTEN null cells [4] = experiment: Calcium flux assay (FLUO-4, FDSS/FLIPR); format: cell-based, human; settings: small molecule agonists 10 micromolar, peptide and lipid agonists 1 micromolar
Excerpt: as §2

[5] = tested on: HCT116-PTEN Null cell line; experiment: Label-free RWG biosensor DMR assay; format: cell-based, human; settings: for kinase inhibitor drug-induced DMR signal: HCT116-PTEN null; for kinase inhibitor drug-induced DMR signal / sensitivity of kinase inhibitor drug-induced DMR to PTEN deletion: 16 μM; for sensitivity of kinase inhibitor drug-induced DMR to PTEN deletion: PTEN null vs parental
Excerpt: (§4) EPIC® beta version wavelength interrogation system (Corning Inc., NY) was used for whole cell sensing. This system consists of a temperature-control unit, an optical detection unit, and an on-board liquid handling unit with robotics. The detection unit is centered on integrated fiber optics, and enables kinetic measures of cellular responses with a time interval of ˜15 sec. Also EPIC® commercial systems were used, with a liquid handler accessory attached to EPIC® reader system. Also, an Epic® RWG imager can be used.
(§5) The resonant waveguide grating (RWG) biosensor is capable of detecting minute changes in local index of refraction near the sensor surface and the waveguide thin film having gratings provide a cell culture surface. Since the local index of refraction within a cell is a function of density and its distribution of biomass (e.g., proteins, molecular complexes), the biosensor exploits its evanescent wave to non-invasively detect ligand-induced Dynamic Mass Redistribution (DMR) in native cells. When a cell is stimulated, it responds. That response is a redistribution of biomass in the cell. Upon stimulation, proteins, protein complexes, and/or organelles in the cells move. The evanescent wave extends into the cells and exponentially decays over distance, leading to a characteristic sensing depth of ˜150 nm. Any optical response mediated through receptor activation only represents an average over the portion of the cell that the evanescent wave is sampling. The aggregation of many cellular events downstream to the receptor activation leads to a DMR signal having characteristic kinetics and amplitudes.
(§6) All assays were carried out at a controlled temperature (28° C.). At least two independent sets of experiments, each with at least three replicates, were performed.

[6] = tested on: HCT116 parental cell line; experiment: Label-free RWG biosensor DMR assay; format: cell-based, human; settings: for kinase inhibitor drug-induced DMR signal: 16 μM
Excerpt: as §4, §5, §6

[7] = tested on: IGF1-induced DMR in HCT116 parental cell line; experiment: DMR reporter assay: modulation of IGF1-induced DMR by kinase inhibitor pretreatment; settings: 2 nM IGF1; for alteration of the late response of the IGF1 DMR (signal at 50 min poststimulation): about 1 hr pretreatment at different doses; for impact on the early P-DMR amplitude of the IGF1 DMR: about 1 hr pretreatment
[8] = tested on: IGF1-induced DMR in HCT116-PTEN Null cell line; experiment: as above; settings: 2 nM IGF1; for alteration of the late response of the IGF1 DMR (signal at 50 min poststimulation) / impact on the early P-DMR amplitude of the IGF1 DMR: HCT116-PTEN Null; for alteration of the late response of the IGF1 DMR (signal at 50 min poststimulation): about 1 hr pretreatment at different doses; for impact on the early P-DMR amplitude of the IGF1 DMR / potency to increase the late IGF1 response, PTEN-deleted vs parental cell line: about 1 hr pretreatment

## CCNC(=O)[C@H]1O[C@@H](n2cnc3c(N)nc(NCCc4ccc(CCC(=O)O)cc4)nc32)[C@H](O)[C@@H]1O [CGS21680]
HCT116 parental cells [1]
  cAMP accumulation (normalized to forskolin-induced cAMP increase): detectable cAMP accumulation
HCT116 PTEN null cells [2]
  cAMP accumulation (normalized to forskolin-induced cAMP increase): detectable cAMP accumulation

## CCCCC[C@H](O)/C=C/[C@H]1[C@H](O)CC(=O)[C@@H]1C/C=C\CCCC(=O)O [PGE2, Peostaglandin E2]
HCT116 parental cells [1]
  cAMP accumulation (normalized to forskolin-induced cAMP increase): detectable cAMP accumulation
HCT116 PTEN null cells [2]
  cAMP accumulation (normalized to forskolin-induced cAMP increase): detectable cAMP accumulation

## O=c1ccn([C@@H]2O[C@H](COP(=O)(O)OP(=O)(O)O)[C@@H](O)[C@H]2O)c(=O)[nH]1 [UDP]
HCT116 parental cells [3]
  Ca^2+ mobilization (fold increase in fluorescence, FLIPR): robust Ca^2+ mobilization
HCT116 PTEN null cells [4]
  Ca^2+ mobilization (fold increase in fluorescence, FLIPR): robust Ca^2+ mobilization

## Nc1ncnc2c1ncn2[C@@H]1O[C@H](CO)[C@@H](O)[C@H]1O [adenosine, Adenosine]
[5]
  effect of cholera toxin (CTx) pretreatment on the agonist DMR: almost completely suppressed
[5]; 10 μM agonist (EGF, IGF1 1 μM)
  agonist DMR in PTEN deleted cell line compared to parental cell line (sensitivity to PTEN deletion): greatly different
[5]; HCT116-PTEN Null, 10 μM agonist
  receptor / signaling pathway activated (pathway deconvolution of DMR with toxins): primarily activates endogenous Gs-coupled adenosine A2B receptors
[5]; HCT116-PTEN Null, PTX 100 ng/ml overnight, 10 μM agonist
  effect of pertussis toxin (PTx) pretreatment on the agonist DMR: only accelerated
[6]
  effect of cholera toxin (CTx) pretreatment on the agonist DMR: almost completely suppressed
[6]; HCT116 parental, 10 μM agonist
  receptor / signaling pathway activated (pathway deconvolution of DMR with toxins): primarily activates endogenous Gs-coupled adenosine A2B receptors
[6]; HCT116 parental, PTX 100 ng/ml overnight, 10 μM agonist
  effect of pertussis toxin (PTx) pretreatment on the agonist DMR: only accelerated

## CNC[C@H](O)c1ccc(O)c(O)c1 [epinephrine, (−)epinephrine]
[5]
  agonist DMR in PTEN deleted cell line compared to parental cell line (sensitivity to PTEN deletion): greatly differed
  effect of pertussis toxin (PTx) pretreatment on the agonist DMR: little effect
  receptor / signaling pathway activated (pathway deconvolution of DMR with toxins): primarily activates endogenous Gs-coupled beta1-adrenergic receptor
[6]
  effect of pertussis toxin (PTx) pretreatment on the agonist DMR: little effect
  receptor / signaling pathway activated (pathway deconvolution of DMR with toxins): primarily activates endogenous Gs-coupled beta1-adrenergic receptor

## C#Cc1cccc(Nc2ncnc3cc(OCCOC)c(OCCOC)cc23)c1 [erlotinib]
[7]
  alteration of the late response of the IGF1 DMR (signal at 50 min poststimulation): increased in the dose-dependent manner
  impact on the early P-DMR amplitude of the IGF1 DMR: little impact
[8]
  alteration of the late response of the IGF1 DMR (signal at 50 min poststimulation): increased in the dose-dependent manner
  impact on the early P-DMR amplitude of the IGF1 DMR: little impact
  potency to increase the late IGF1 response, PTEN-deleted vs parental cell line: lower
[5]
  kinase inhibitor drug-induced DMR signal: very small DMR signals
[6]; HCT116 parental
  kinase inhibitor drug-induced DMR signal: very small DMR signals

## CO[C@H]1C[C@@H]2CC[C@@H](C)[C@@](O)(O2)C(=O)C(=O)N2CCCC[C@H]2C(=O)O[C@H]([C@H](C)C[C@@H]2CC[C@@H](OCCO)[C@H](OC)C2)CC(=O)[C@H](C)/C=C(\C)[C@@H](O)[C@@H](OC)C(=O)[C@H](C)C[C@H](C)/C=C/C=C/C=C/1C [everolimus]
[5]
  sensitivity of kinase inhibitor drug-induced DMR to PTEN deletion: suppressed or decreased the kinetics
[6]; HCT116 parental
  kinase inhibitor drug-induced DMR signal: detectable DMR

## C=C[C@@]1(C)CC(=O)[C@]2(O)[C@@]3(C)[C@@H](O)CCC(C)(C)[C@@H]3[C@H](O)[C@H](OC(C)=O)[C@@]2(C)O1 [forskolin]
[5]; HCT116-PTEN Null, GPCR agonist library profiling, 3-45 min poststimulation
  DMR signal amplitude: greater than 80 picometer
[6]; HCT116 parental, GPCR agonist library profiling, 3-45 min poststimulation
  DMR signal amplitude: greater than 80 picometer

## COc1cc2ncnc(Nc3ccc(F)c(Cl)c3)c2cc1OCCCN1CCOCC1 [gefitinib]
[7]
  alteration of the late response of the IGF1 DMR (signal at 50 min poststimulation): increased in the dose-dependent manner
  impact on the early P-DMR amplitude of the IGF1 DMR: little impact
[8]
  alteration of the late response of the IGF1 DMR (signal at 50 min poststimulation): increased in the dose-dependent manner
  impact on the early P-DMR amplitude of the IGF1 DMR: little impact
  potency to increase the late IGF1 response, PTEN-deleted vs parental cell line: lower

## Cc1ccc(NC(=O)c2ccc(CN3CCN(C)CC3)cc2)cc1Nc1nccc(-c2cccnc2)n1 [imatinib]
[7]
  alteration of the late response of the IGF1 DMR (signal at 50 min poststimulation): dose-dependently increased
[5]
  sensitivity of kinase inhibitor drug-induced DMR to PTEN deletion: sensitive; also recorded: great sensitivity

## CS(=O)(=O)CCNCc1ccc(-c2ccc3ncnc(Nc4ccc(OCc5cccc(F)c5)c(Cl)c4)c3c2)o1 [lapatinib]
[5]
  kinase inhibitor drug-induced DMR signal: did not result in any detectable DMR
[6]; HCT116 parental
  kinase inhibitor drug-induced DMR signal: did not result in any detectable DMR

## Cc1cn(-c2cc(NC(=O)c3ccc(C)c(Nc4nccc(-c5cccnc5)n4)c3)cc(C(F)(F)F)c2)cn1 [nilotinib]
[5]
  sensitivity of kinase inhibitor drug-induced DMR to PTEN deletion: sensitive

## CNC(=O)c1cc(Oc2ccc(NC(=O)Nc3ccc(Cl)c(C(F)(F)F)c3)cc2)ccn1 [sorafenib]
[5]
  kinase inhibitor drug-induced DMR signal: did not result in any detectable DMR
[6]; HCT116 parental
  kinase inhibitor drug-induced DMR signal: did not result in any detectable DMR

## CO[C@H]1C[C@@H]2CC[C@@H](C)[C@@](O)(O2)C(=O)C(=O)N2CCCC[C@H]2C(=O)O[C@H]([C@H](C)C[C@@H]2CC[C@@H](OC(=O)C(C)(CO)CO)[C@H](OC)C2)CC(=O)[C@H](C)/C=C(\C)[C@@H](O)[C@@H](OC)C(=O)[C@H](C)C[C@H](C)/C=C/C=C/C=C/1C [temsirolimus]
[5]
  sensitivity of kinase inhibitor drug-induced DMR to PTEN deletion: suppressed or decreased the kinetics
[6]; HCT116 parental
  kinase inhibitor drug-induced DMR signal: detectable DMR

## Adrenomedulin (YRQSMNNFQGLRSFGCRFGTCTVQKLAHQIYQFTDKDKDNVAPRSKISPQGY; ends and bridges not checked; cysteine pairing not given here; UniProt P35318 95-146, looked up) [peptide agonist of adrenomedulin receptor]
HCT116 parental cells [1]
  cAMP accumulation (normalized to forskolin-induced cAMP increase): detectable cAMP accumulation
HCT116 PTEN null cells [2]
  cAMP accumulation (normalized to forskolin-induced cAMP increase): detectable cAMP accumulation

## Calcitonin (CGNLSTCMLGTYTQDFNKFHTFPQTAIGVGAP; ends and bridges not checked; cysteine pairing not given here; UniProt P01258 85-116, looked up) [peptide agonist of calcitonin receptor]
HCT116 parental cells [1]
  cAMP accumulation (normalized to forskolin-induced cAMP increase): detectable cAMP accumulation
HCT116 PTEN null cells [2]
  cAMP accumulation (normalized to forskolin-induced cAMP increase): detectable cAMP accumulation

## EGF: epidermal growth factor (EGF) (NSDSECPLSHDGYCLHDGVCMYIEALDKYACNCVVGYIGERCQYRDLKWWELR; Epidermal growth factor; UniProt P01133 971-1023, looked up)
[5]; 10 μM agonist (EGF, IGF1 1 μM)
  agonist DMR in PTEN deleted cell line compared to parental cell line (sensitivity to PTEN deletion): insensitive

## IGF1: insulin growth factor-1 (IGF1)
[5]; 10 μM agonist (EGF, IGF1 1 μM)
  agonist DMR in PTEN deleted cell line compared to parental cell line (sensitivity to PTEN deletion): clear effects; also recorded: greater sensitivity
[5]; HCT116-PTEN Null, untreated, 10 μM agonist (EGF, IGF1 1 μM)
  agonist-induced DMR signal: robust DMR signal
[6]; HCT116 parental, untreated, 10 μM agonist (EGF, IGF1 1 μM)
  agonist-induced DMR signal: robust DMR signal

## Vasoactive intestinal peptide (HSDAVFTDNYTRLRKQMAVKKYLNSILN; ends and bridges not checked; UniProt P01282 125-152, looked up) [VIP]
HCT116 parental cells [1]
  cAMP accumulation (normalized to forskolin-induced cAMP increase): detectable cAMP accumulation
HCT116 PTEN null cells [2]
  cAMP accumulation (normalized to forskolin-induced cAMP increase): detectable cAMP accumulation
